Data taken from the METLIN SMRT retention time set (Domingo-Almenara et al. 2019).

Experiment: gradient 5% acetonitrile 3 min, to 50% in 2 min, to 85% in 15 min, held 3 min, 100 µL/min
Conditions: column: Zorbax Extend-C18 2.1 x 50 mm; eluents: water / acetonitrile, 0.1% formic acid
Procedure, shortened: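 Pure standards were run in mixtures of ~100 molecules by HPLC coupled to a quadrupole time-of-flight mass spectrometer. The column was a Zorbax Extend-C18 (2.1 × 50 mm, 1.8 μm) at 100 μL/min, with water and acetonitrile each containing 0.1% formic acid, in positive and negative ionization mode. Dead and dwell volumes were 40 μL and 900 μL. Retention time was taken from computationally picked adduct peaks, each manually inspected, with data collected over 3 months.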

Row | RP-LC retention time [s] | Structure (SMILES)
1 | 1390 | CCCOc1nc2ccccc2nc1N1CCCC(C(=O)Nc2cccc(C)c2C)C1 (stereo unspecified)
2 | 871 | C[C@H]1CN(S(=O)(=O)c2ccccc2)C[C@@H]1c1nc(-c2ccncc2)no1
3 | 921 | O=C1CC(c2noc(-c3ccccc3)n2)CN1c1ccccc1 (stereo unspecified)
4 | 824 | O=C(Nc1ccc(Cl)cc1F)C1Oc2ccccc2NC1=O (stereo unspecified)
5 | 1030 | Cc1ccc2c(c1)N(S(C)(=O)=O)CCC(C(=O)Nc1ccc(Br)cc1F)O2 (stereo unspecified)
6 | 563 | O=C(c1ccccc1Br)N1CCc2nc[nH]c2C1
7 | 882 | CCC(C)NC(=O)Cn1c2ccccc2c2ncn(Cc3nc(-c4ccccc4)no3)c(=O)c21 (stereo unspecified)
8 | 732 | COc1cccc(-c2cn3c(C(=O)Nc4ncccc4C)csc3n2)c1
9 | 962 | COc1ccc(-c2csc(NC(=O)c3ccc(C)o3)n2)cc1
10 | 668 | CN(C)C(CNC(=O)c1cc(-c2cccs2)on1)c1ccc(F)cc1 (stereo unspecified)
11 | 783 | O=C(c1ccccc1F)N1CCC(n2nc(-c3ccsc3)ccc2=O)CC1
12 | 967 | COc1cc(OC)cc(N2C(=O)C3N=NN(Cc4nc(-c5ccccc5Cl)no4)C3C2=O)c1 (stereo unspecified)
13 | 962 | Cn1nc(-c2nc(Cc3ccccc3)no2)c2c1CCN(C(=O)C1(c3ccccc3)CC1)C2
14 | 861 | COc1ccc(S(=O)(=O)NCc2ccc3c(c2)CCN3C(=O)C(C)C)cc1
15 | 1310 | CCOC(=O)c1c(C)oc2ncnc(NC3CCCc4ccccc43)c12 (stereo unspecified)
16 | 824 | CCCN1C(=O)c2c(C(=O)NCCC(C)C)ncn2CC1(C)C(=O)NCc1ccc(F)cc1 (stereo unspecified)
17 | 691 | CCOc1cc(C(=O)Nc2cc(=O)n(C)c(=O)n2C)cc(OCC)c1OCC
18 | 1060 | CCc1ccc(NC(=O)C2CCN(S(=O)(=O)c3ccc4c(c3)sc(=O)n4C(C)C)CC2)cc1
19 | 702 | COC(=O)c1ccc(C2NC(=O)c3[nH]nc(-c4ccc(OC)cc4)c32)cc1 (stereo unspecified)
20 | 692 | COc1ccccc1OCCC1CCN(S(=O)(=O)Cc2ccccc2)C1 (stereo unspecified)
21 | 702 | CCc1ccc(Nc2c(C(=O)N3CCCC(C)C3)cnc3nc(C)ccc23)cc1 (stereo unspecified)
22 | 679 | COCCOCc1nc(C2CCCN2C(=O)c2ccsc2)no1 (stereo unspecified)
23 | 650 | c1ccc2c(c1)CCN(c1ncnc3c1CCC3)C2

Row | RP-LC retention time [s] | Structure (SMILES)
24 | 743 | O=C(NCc1ccccn1)c1cccn1Cc1noc(-c2ccc(Cl)cc2)n1
25 | 617 | COc1ccc(Cl)c2c(=O)c3c([nH]c12)CCN(CC(=O)Nc1ccccc1)C3
26 | 723 | CCOc1ccccc1NC(=O)N1CCCC(Cn2cnc3cccnc32)C1 (stereo unspecified)
27 | 652 | C[C@@H](NC(=O)c1cccc(Cl)c1)C(=O)NCc1cscn1
28 | 762 | COc1ccc(N2C=C(C(=O)N3CCOCC3)S(=O)(=O)c3ccc(F)cc32)cc1Cl
29 | 908 | COc1ccccc1NC(=O)C(=O)c1ccc[nH]1
30 | 619 | CC1OC2(CS1)CN1CCC2CC1 (stereo unspecified)
31 | 740 | Cc1noc2nc(CCC(=O)NCc3ccc(Cl)cc3)nc(N3CCOCC3)c12
32 | 640 | O=C(Nc1ccc(Cl)cc1)c1cn2c(n1)CCCC2
33 | 676 | COc1cccc2cc(C(=O)NCCn3nc(-c4cccs4)ccc3=O)oc12
34 | 547 | COc1ccccc1N1C(=O)CC(N2CCC(C(N)=O)CC2)C1=O (stereo unspecified)
35 | 1110 | O=c1ccc(-c2nc(-c3ccc(F)cc3)no2)nn1Cc1cc(F)cc(F)c1
36 | 593 | COc1ccc(NC(=O)c2cnc(N3CCN(C(=O)c4ccco4)CC3)nc2N)cc1
37 | 689 | CCC(C)(C)N=C(NC#N)Nc1cccnc1
38 | 600 | COc1ccc(N2CC(c3nc4ccccc4n3CCN3CCOCC3)CC2=O)cc1 (stereo unspecified)
39 | 596 | Cc1ccc(-n2c(=O)n(CC(=O)NCCN3CCOCC3)c3cccnc32)cc1
40 | 1140 | COc1ccc(-n2cc(C(=O)OCC(=O)OC(C)(C)C)c3ccccc3c2=O)cc1
41 | 790 | Cc1cccc(NC(=O)C2CCN(C(=O)C3Sc4ccccc4NC3=O)CC2)c1 (stereo unspecified)
42 | 747 | Cc1nc(C#Cc2cccnc2)cs1
43 | 750 | CCCOC(=O)c1cnc2nc(C)ccc2c1NCc1ccc(OC)cc1
44 | 679 | COCc1nncn1C1CCN(S(=O)(=O)c2cc(F)ccc2OC)CC1
45 | 684 | CCN(CC)CCNc1ncnc2c1cnn2-c1cccc(Cl)c1
46 | 889 | COc1ccc(NC(=O)Cc2csc3nc(-c4cccc(Cl)c4)cn23)cc1

Row | RP-LC retention time [s] | Structure (SMILES)
47 | 910 | CCC(CC)C(=O)Nc1nc(-c2ccc3c(c2)NC(=O)CO3)c(C)s1
48 | 988 | CCOC(=O)C1=C(C)NC2=C(C(=O)c3ccccc32)C1c1cccc(OC)c1 (stereo unspecified)
49 | 574 | CCC(CC)N1CCN(C(=O)c2nc(N3CCSCC3)c3cn(C)nc3n2)CC1
50 | 762 | Cc1cc(NC(=O)CSc2nnc(Cc3cccn3C)n2CCc2ccccc2)no1
51 | 889 | CCc1cccc(Nc2ncccc2S(N)(=O)=O)c1
52 | 1320 | COc1ccc(-c2ccnn2-c2ccc(SCc3ccccc3)nn2)cc1
53 | 1060 | CCCN1C(=O)COc2ccc(-c3noc(C4CC(=O)N(c5ccc(C)c(C)c5)C4)n3)cc21 (stereo unspecified)
54 | 605 | CN1CCCN(C(=O)CCc2ccc3c(ccn3C)c2)CC1
55 | 607 | O=C(C1CCCN(S(=O)(=O)c2ccc(-c3ccn[nH]3)o2)C1)N1CCN(c2ccccn2)CC1 (stereo unspecified)
56 | 1170 | O=c1c2cc3c(cc2nc(SCc2nc(-c4ccc(F)cc4)no2)n1-c1ccc(F)cc1)OCO3
57 | 656 | Cc1ccc(CNC(=O)C2(CCO)CCN(Cc3ccccc3)C2)o1 (stereo unspecified)
58 | 765 | Nc1cc(C2CCN(C(=O)Nc3cc(F)c(F)c(F)c3)CC2)no1
59 | 841 | COc1ccc(OC)c(NC(=O)Cn2c(=O)n(-c3ccccc3)c3ncccc32)c1
60 | 639 | COC1C(=O)N(CC2CC2)C12CCN(C(=O)C1CC1)CC2 (stereo unspecified)
61 | 853 | CCOC(=O)c1c(S(=O)(=O)N2CCC(C(=O)Nc3ccc(OCC)cc3)CC2)c(C)n(C)c1C
62 | 633 | COCCNC(=O)Cc1c(C)n(C)c2nc(-c3ccccc3)nn2c1=O
63 | 810 | O=C(NCc1cc(-c2ccccc2F)on1)c1ccccc1Br
64 | 780 | Cc1ccc(-c2cc(C(=O)N3CCOCC3)nn2C2CCS(=O)(=O)C2)cc1C (stereo unspecified)
65 | 626 | O=C(NCC1CCN(Cc2ccccc2)CC1)C(=O)Nc1ccc(OC(F)(F)F)cc1
66 | 544 | O=C(c1cn(CC(O)c2ccccc2)nn1)N1CCN(c2ccccn2)CC1 (stereo unspecified)
67 | 632 | CN(C)C/C=C/C(=O)Nc1cc2c(Nc3ccc(F)c(Cl)c3)ncnc2cc1O[C@H]1CCOC1
68 | 788 | CNCC[C@H](Oc1cccc2ccccc12)c1cccs1
69 | 723 | O=C(NCc1ccccc1F)c1cn2cc(Cl)ccc2n1

Row | RP-LC retention time [s] | Structure (SMILES)
70 | 642 | COc1nccnc1N1CCC(N(C)C(=O)Cc2c(C)noc2C)C1 (stereo unspecified)
71 | 931 | Cc1cc(C)n(Cc2nc(-c3ccc(NC(=O)C4CCCC4)cc3)oc2C)n1
72 | 945 | O=C(Nc1ccc(N2CCOCC2)cc1)C1CCCN(c2nccnc2Sc2ccccc2)C1 (stereo unspecified)
73 | 782 | Cc1sc(-n2c(C)c3c(C)nnc(C)c3c2C)nc1-c1ccc(Br)cc1
74 | 871 | CC(=O)c1ccc(NC(=O)c2noc3c2CCCC3)cc1
75 | 903 | COc1ccccc1N1CCN(c2ncc(S(=O)(=O)c3ccccc3)c(N)n2)CC1
76 | 839 | CCC1Oc2ccc(S(=O)(=O)N3CCC(C(=O)NCc4ccccc4OC)CC3)cc2NC1=O (stereo unspecified)
77 | 794 | Cc1ccc(-c2nc(-c3ccc(-n4ccnc4)nc3)no2)cc1
78 | 740 | O=C(O)c1cc2cc(Cl)ccc2[nH]1
79 | 1010 | CCn1c(=O)oc2cc(S(=O)(=O)N3CCC(CC(=O)N4c5ccccc5CC4C)CC3)ccc21 (stereo unspecified)
80 | 1010 | Brc1c(Br)c(Br)c2n[nH]nc2c1Br
81 | 696 | Cc1ccc(-c2nccn3cc(C(=O)O)nc23)cc1
82 | 821 | Cc1ccc(C(=O)N2CC3CN(S(=O)(=O)c4cccc(F)c4)CC(C2)O3)s1
83 | 818 | COc1ccc(CNC(=O)c2cn(C)nc2S(=O)(=O)N2CCSCC2)cc1
84 | 736 | Cc1ccc(-c2cc(N3CCN(C(=O)c4ccc(C)c(C)c4)CC3)ncn2)cc1
85 | 963 | CCc1ccc(NC(=O)C2CCN(S(=O)(=O)c3ccc4c(c3)NC(=O)C(CC)O4)CC2)cc1 (stereo unspecified)
86 | 865 | CCCn1cc(C2=CCN(S(=O)(=O)c3ccc(NC(C)=O)cc3)CC2)c2cccnc21
87 | 916 | CCc1nc2cc(-c3noc(Cc4ccc(NC(C)=O)cc4)n3)ccc2o1
88 | 1120 | Cc1ccc(-c2ccnc(SCC(=O)Nc3ccccc3C(F)(F)F)n2)cc1C
89 | 944 | COc1ccccc1-c1noc(CN2C(=O)C(C)Oc3ccccc32)n1 (stereo unspecified)
90 | 629 | CCc1nc2c(c(=O)n1CC(=O)NCc1ccccc1)CN(Cc1ccccc1)CC2
91 | 1030 | Clc1ccc(Sc2c(-c3ccccc3)nc3ncccn23)cc1
